Reference: patent US20100168137A1, “COMBINATION FOR USE IN THE TREATMENT OF INFLAMMATORY DISORDERS” (priority 2006, published 2010)

Tests used:
[1] = system: MonoMac-6 (MM6) cells; experiment: MonoMac-6 macrophage proliferation (WST-1 reagent); type: cell-based, human; settings: 48 hours; for inhibitory effect on MM6 proliferation at 10 μM (in words): WST-1, n=5, data not shown; for inhibition at 100 µM: Homo sapiens, MONO-MAC-6, 100 μM final concentration of each drug, WST-1, mean value n=5, versus untreated cells
Protocol: Cells from the human macrophage cell-line MonoMac-6 (MM6) (Ziegler-Heitbrock et al, Int. J. Cancer, 41, 456 (1988)) were cultured (37° C./5% CO2) in RPMI-1640 medium supplemented with 1 mM sodium pyruvate, 1×nonessential amino acids, 1-100 μg/mL insulin, 1 mM oxalacetic acid, 100 units/mL penicillin, 100 μg/mL streptomycin and 10% (v/v) fetal bovine serum. At the start of the experiment, MM6 cells were seeded in 96-well plates at a density of 1×10^5 cells/mL (100 μl per well). Proliferation of the MM6 cells was measured using the Cell Proliferation Reagent WST-1 (Roche Diagnostics Scandinavia AB, Bromma, Sweden) or by cell counting using a microscope. The WST-1 reagent is designed to be used for spectrophotometric quantification of e.g. cell growth in proliferation assays and was used according to the manufacturers' instructions. […] Stock solutions of pemirolast (potassium salt purchased from American Custom Chemicals Corporation, San Diego, USA) and ramatroban (purchased from Cayman Chemical, Ann Arbor, Mich., USA as free acid and transferred into sodium salt by adding one equivalent of aqueous NaOH) were made in sterile saline.
The effects of pemirolast and/or ramatroban (added at the start of the experiments) on MM6 cell proliferation were studied 48 hours after start of the experiments using the WST-1 reagent described above.

[2] = system: Macrophage inflammatory protein-2 (MIP-2), also designated chemokine (C-X-C motif) ligand 2 (CXCL2); experiment: MIP-2 gene expression (microarray) in balloon-injured rat carotid artery; type: in vivo; settings: for effect on MIP-2 gene expression (in words): 5 mg/kg of each drug s.c. 60 minutes before injury, 8 hours after injury, versus saline control; for mean MIP-2 signal intensity: male Sprague-Dawley rats, 5 mg/kg of each drug s.c. 60 minutes before carotid balloon injury, tissue taken 8 hours after injury, 3 rats per group, saline control 203
[3] = system: Platelet derived growth factor, alpha (PDGFa); experiment: PDGFa gene expression (microarray) in balloon-injured rat carotid artery; type: in vivo; settings: for effect on PDGFa gene expression (in words): 5 mg/kg of each drug s.c. 60 minutes before injury, 8 hours after injury, versus saline control; for mean PDGFa signal intensity: male Sprague-Dawley rats, 5 mg/kg of each drug s.c. 60 minutes before carotid balloon injury, tissue taken 8 hours after injury, 3 rats per group, saline control 528

| Structure (SMILES) | inhibitory effect on MM6 proliferation at 10 μM (in words) [1] | inhibition at 100 µM [1] [%] | effect on MIP-2 gene expression (in words) [2] | mean MIP-2 signal intensity [2] | effect on PDGFa gene expression (in words) [3] | mean PDGFa signal intensity [3] |
| --- | --- | --- | --- | --- | --- | --- |
| Cc1cccn2c(=O)c(-c3nnn[nH]3)cnc12 [pemirolast] | very similar to that of 100 μM of pemirolast | 9.4 | did not reduce MIP-2 gene expression levels | 710 | did not reduce PDGFa gene expression levels | 800 |
| O=C(O)CCn1c2c(c3ccccc31)C[C@H](NS(=O)(=O)c1ccc(F)cc1)CC2 [ramatroban] | less that that of 100 μM of ramatroban | 16.8 | did not reduce MIP-2 gene expression levels | 326 | did not reduce PDGFa gene expression levels | 566 |
